Results taken from patent EP0569777A2 (Bayer Corporation, priority 1992, dated 1993).
Entries after “also recorded” stand apart in the source; their conditions may differ. Where a SMILES comes first, the peptide text is derived from it. [ ]: non-standard residue; d: D form. The star is where a group is joined. Sta = CC(C)C[C@H](N)[C@@H](O)CC(=O)O; Isovaleryl = CC(C)CC(=O)*

Assays:
[1] = test system: human AD brain fraction P2 V APP degrading activity; test: Immunoblot assay of APP 695 degradation by Mono-Q pool P2 V; format: biochemical; settings: 11.5 kDa fragment, trial A,B, Pepstatin A 400µM (methanolic), pH 6.5, 24 hrs, 37°C
Method: ii) Solubilization. The membranous control or AD subfractions (P-2 or M) were solubilized by adjusting to the following conditions: 2% (v/v) Triton X-100 containing 50 mM Tris HCl buffer, pH 7.5. After stirring at 4°C for 3.5 hrs, the suspensions were centrifuged at 105,000 g x 60 min in a Beckman 70 Ti rotor. The following final protein concentrations were used in solubilization, for P-2 (3.9 to 4.0 mg/ml); and for M (1.4 to 1.6 mg/ml). Solubilized supernatants were stored at -70°C for later use. The soluble fraction was not treated with detergent but rather was adjusted to 50 mM in Tris HCl, pH 7.5, by the addition of stock 1M buffer. iii) Ion-exchange chromatography. Chromatography was performed using a Gilson gradient liquid chromatograph (model 305 and 306 pumps) equipped with a 50 ml Rheodyne stainless steel loop injector model 7125, and connected to a Mono Q HR 10/10 column (Pharmacia, Piscataway, NJ). Absorbance of column effluent was monitored at 280 nm using a Pharmacia UV-M detector and a Kippen-zonen chart recorder. […] In the initial studies, eluted fractions were monitored for A280 nm, total protein (Bradford assay), and peptidase activity (as decsribed in Examples 2 and 3). […] Fractions were monitored for A 280 nm, total protein (Bradford assay), peptidase activity, and activity for C-terminal processing of recombinant APP. […]

[2] = biological target: human brain P-2 enzyme (peak B), aspartic protease identified as cathepsin D (Homo sapiens, UniProt P07339); test: Immunoblot assay of holo-APP 695 degradation by P-2 enzyme (peak B, 15-25 kDa gel filtration region); format: biochemical; settings: 100 uM pepstatin A in DMSO; P-2 enzyme 2.54 ug/ml, APP 168 nM, Mes buffer pH 6.5, 26 hr, 37°C; Figure 7
human brain P-2 enzyme (peak B), aspartic protease identified as cathepsin D, sequence (P07339 with tags, fused parts or gaps): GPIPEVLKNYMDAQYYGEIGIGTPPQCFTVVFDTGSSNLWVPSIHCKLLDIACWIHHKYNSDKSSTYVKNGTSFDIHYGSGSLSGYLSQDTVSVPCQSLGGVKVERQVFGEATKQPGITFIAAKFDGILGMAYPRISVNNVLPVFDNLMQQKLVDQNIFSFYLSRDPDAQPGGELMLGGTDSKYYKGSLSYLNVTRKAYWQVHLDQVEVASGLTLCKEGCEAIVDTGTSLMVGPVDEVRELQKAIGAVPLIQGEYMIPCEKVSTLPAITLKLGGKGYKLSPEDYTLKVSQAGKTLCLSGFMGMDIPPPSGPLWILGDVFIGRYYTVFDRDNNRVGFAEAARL
Method: Reactions (32 ul) were initiated at 37°C by APP addition to achieve the following initial component conditions: P-2 enzyme (2.54 ug/ml) fraction from the 15-25 kDa region of gel filtration (Figure 6); APP (168 nM), in 96 mM Mes buffer pH 6.5. Reactions were terminated after 26 hr by addition of 15 ul of 3X sample buffer, and subject to immunoblot analysis using a 1/1000 dilution of the rabbit polyclonal antiserum to the APP C-terminus. […] The effect of incubation of APP for 0hr (lanes 2 and 30) and 26 hr (lanes 3 and 28) are also shown. Lanes 6, 10, 14, 17, 21 and 25 contained enzyme alone. Lanes 4, 8, 12, 19, 23, and […] contained the C-100 standard. Prestained molecular weight markers are present in lanes 1 and 29. The 18 and 28 kDa C-terminal product fragments are located with arrows.
ii) Solubilization. […] Absorbance of column effluent was monitored at 280 nm using a Pharmacia UV-M detector and a Kippen-zonen chart recorder. […] In the initial studies, eluted fractions were monitored for A280 nm, total protein (Bradford assay), and peptidase activity (as decsribed in Examples 2 and 3). […] Fractions were monitored for A 280 nm, total protein (Bradford assay), peptidase activity, and activity for C-terminal processing of recombinant APP. […]

Compound: CC(C)CC(=O)N[C@H](C(=O)N[C@H](C(=O)N[C@@H](CC(C)C)[C@@H](O)CC(=O)N[C@@H](C)C(=O)N[C@@H](CC(C)C)[C@@H](O)CC(=O)O)C(C)C)C(C)C [pepstatin A] (Isovaleryl-VV[Sta]A[Sta]-OH)
- Inhibitors (pH 6.5): compounds causing complete inhibition are listed [1]: completely; also recorded: pepstatin A aprotinin
- Inhibition of peak B APP degrading activity [2]: quantitative inhibition
